# Columns and labels:
# [1] = tested on: T1, interaction of Keap1 and Cul3; test: Co-IP of Keap1 and Cul3 in 293T cells; format: cell-based, human
# T1 construct: expressed in transfected cells; host or cells: 293T
# Protocol: Alkylation of the BTB domain of Keap1 by covalent modifiers contributes to the disruption of the Keap1-Cul3 interactions, leading to Nrf2 activation. Next, we investigated the effect of PBA on the modulation of Nrf2 ubiquitination as Nrf2 stability is controlled by ubiquitin-mediated proteasomal degradation. First, 3X Flag-Keap1, Myc-Nrf2 and Ub plasmids were transfected into 293T cells and then, the cells were treated with 30 μM PBA for 20 h and 5 μM MG132 for another 4 h. Cell lysates were pulled down using anti-Myc beads, and immunopurified Nrf2 was examined for the occurrence of Ub by western blotting. […]
# Figure 6 PBA suppresses Keap1-mediated ubiquitination of Nrf2 by disrupting the interaction between Cul3 and Keap1. […] The cell lysates were immunoprecipitated using anti-Myc beads, and the ubiquitination level was evaluated using the anti-Ub antibody. […] The cell lysates were immunoprecipitated with the anti-Flag antibody, and the level of Nrf2 was assessed using the anti-Nrf2 antibody. […] The cell lysates were immunoprecipitated with the anti-Flag antibody, and the level of Cul3 was measured using the anti-Cul3 antibody. #p < 0.05, ##p < 0.01, ###p < 0.001, the control vs DMSO; *p < 0.05,**p < 0.01, ***p < 0.001, PBA or tBHQ vs DMSO. […] Cell viability was measured by MTT assays. #p < 0.05, ###p < 0.001, the control vs OGD/R; **p < 0.01, ***p < 0.001, OGD/R+PBA vs OGD/R.
# H9c2 cells = test: MTT cytotoxicity, H9c2; format: cell-based, rat; details: under 240 μM, 48 h
# Protocol: Cell viability was determined by MTT assays. PBA was prepared to a stock solution dissolved in dimethyl sulfoxide (DMSO). RAW264.7, H9c2 cells, primary mouse cardiomyocytes were treated with different doses of PBA, and DMSO only as control for 48 h for the toxicity. In addition, H9c2 cells or primary mouse cardiomyocytes were treated with the indicated doses of PBA, diazoxide as positive control, DMSO only as control, then cultured with or without OGD/R treatment. At the end of the experiments, MTT was added into each well at the concentration of 0.5 mg/ml, and incubated at 37 °C for 4 h. After removal of the supernatant, 150 μL of DMSO was added to solubilize the formazan products. And the solution was measured at the absorbance of 490 nm by a spectrophotometer (Thermo Fisher Scientific, MA, USA). The results of the MTT assay in all groups were normalized to the control group with DMSO only treatment.
# Keap1 = tested on: T2, Keap1; test: Pull-down with PBA-Sepharose 4B beads, cell lysate; format: binding; details: 4 °C, immunoblot, Sepharose 4B beads only as negative control
# T2 construct: endogenous in cells; host or cells: RAW264.7
# Protocol: PBA-Sepharose 4B beads were created by dissolving PBA in coupling buffer (100 mM NaHCO3, pH 8.3, 0.5 M NaCl). After washing with 1 mM HCl medium, Sepharose 4B beads were mixed with PBA coupling buffer and slowly rotated overnight at 4 °C. Excess PBA was washed away with coupling buffer and any remaining active groups were blocked with 0.1 M Tris-HCl buffer (pH 8.0) for 2 h. The medium was then washed with 0.1 M acetate buffer (pH 4.0) containing 0.5 M NaCl followed by a wash with 0.1 M Tris-HCl (pH 8.0) that also contained 0.5 M NaCl. PBA-Sepharose 4B beads were ready for use in the pull-down assay. The RAW264.7 cellular supernatant fraction (600 µg) was incubated with either PBA-Sepharose 4B or Sepharose 4B as a negative control in reaction buffer (50 mM Tris-HCl, pH 7.5, 5 mM EDTA, 150 mM NaCl, 1 mM DTT, 0.01% NP-40, 2 µg/mL of BSA, 0.02 mM PMSF, 1 × protease inhibitor cocktail). After incubation with gentle rocking overnight at 4 °C, the beads were washed five times with wash buffer (50 mM Tris-HCl, pH 7.5, 5 mM EDTA, 150 mM NaCl, 1 mM DTT, 0.01% NP-40, 0.02 mM PMSF) and proteins bound to the beads were analyzed by immunoblotting assay with a Keap1 antibody.
# [2] = tested on: primary mouse cardiomyocytes transfected with C77S and C434S-Keap1; test: OGD/R viability in Keap1-mutant-transfected primary cardiomyocytes; format: cell-based; details: Cys77S and Cys434S-Keap1 mutant vectors, MTT
# Protocol: Figure 6 PBA suppresses Keap1-mediated ubiquitination of Nrf2 by disrupting the interaction between Cul3 and Keap1. (A and B) PBA suppressed Nrf2 ubiquitination in a Keap1-Cys77 and C434-dependent manner. First, 293T cells were transfected with WT-Keap1 or C77S and C434S-Keap1, Myc-Nrf2, and Ub plasmids for 24 h and treated with 30 μM PBA. The cell lysates were immunoprecipitated using anti-Myc beads, and the ubiquitination level was evaluated using the anti-Ub antibody. (C and D) PBA induced the dissociation of the Nrf2-Keap1 complex. Then, 293T cells were cotransfected with WT-Keap1 and Flag-Nrf2 plasmids for 24 h and treated with 30 μM PBA for 12 h. The cell lysates were immunoprecipitated with the anti-Flag antibody, and the level of Nrf2 was assessed using the anti-Nrf2 antibody. (E and F) PBA disrupted the interaction between Cul3 and Keap1. […] The cell lysates were immunoprecipitated with the anti-Flag antibody, and the level of Cul3 was measured using the anti-Cul3 antibody. #p < 0.05, ##p < 0.01, ###p < 0.001, the control vs DMSO; *p < 0.05,**p < 0.01, ***p < 0.001, PBA or tBHQ vs DMSO. […] Cell viability was measured by MTT assays. #p < 0.05, ###p < 0.001, the control vs OGD/R; **p < 0.01, ***p < 0.001, OGD/R+PBA vs OGD/R.
# Cell viability was determined by MTT assays. […] And the solution was measured at the absorbance of 490 nm by a spectrophotometer (Thermo Fisher Scientific, MA, USA). […]
structure (smiles),measurement,setting,value
"C=C(COC(=O)C=Cc1ccc(O)c(O)c1)C(O)COC1OC(CO)C(O)C(O)C1O (centres unmarked) [PBA, pubescenoside A]",disruption of Keap1 and Cul3 interaction in mutant cells,[1]; Cys77S and Cys434-Keap1 mutant cells,blocked
same,interaction of Keap1 and Cul3 (Co-IP),"[1]; WT-Keap1 293T cells, 30 μM PBA 12 h",could disrupt
same,cell toxicity (MTT),H9c2 cells,did not exhibit any cell toxicity
same,binding of Keap1 to PBA-Sepharose 4B beads (pull-down),Keap1,could bind
same,protective effect against OGD/R injury with mutant Keap1,[2],blocked the protective effect
